Tests used:
[1] = tested on: primary human hepatocytes; experiment: In vitro metabolite profiling in primary human hepatocytes with or without proadifen; format: in vitro ADME; conditions: for % Parent of drug-related material: incubations in primary human hepatocytes, 1 μM test compound; for Contribution of amide hydrolysis to metabolism (incl. secondary metabolites): primary human hepatocytes, abundance of deacetylated metabolites relative to all metabolites
Protocol: In vitro metabolite profiling to evaluate the involvement of non-CYP-enzyme-mediated metabolic pathways such as hydrolysis in addition to CYP-mediated pathways is based on the semiquantitative analysis of the formation of prototypic metabolites in incubations with liver microsomes (with and without beta-nicotinamide adenine dinucleotide phosphate, NADPH), primary human hepatocytes (with and without the pan-CYP inhibitor proadifen) and recombinant CYP enzymes.
An additional measure to identify CYP-independent metabolic pathways is the use of the pan-CYP inhibitor proadifen in incubations of the test compound with human hepatocytes. In presence of proadifen, the CYP-related pathways are inhibited and metabolites would primarily be generated via non-CYP pathways.
The involvement of non-CYP-enzymes in metabolic transformations of the test compound was further investigated using primary human hepatocytes in suspension in presence or absence of the pan-CYP inhibitor proadifen (50 μM final incubation concentration). After recovery from cryopreservation, human hepatocytes were incubated in Dulbecco's modified eagle medium supplemented with 3.5 μg glucagon/500 ml, 2.5 mg insulin/500 ml and 3.75 mg/500 ml hydrocortisone containing 5% (v/v) human serum.
Following a 30 min preincubation in a cell culture incubator (37° C., 10% CO2) with or without 50 μM proadifen, test compound solution was spiked into the hepatocyte suspension to obtain a final cell density of 1.0*10^6 to 4.0*10^6 cells/ml (depending on the metabolic turnover rate of the compound observed with primary human hepatocytes), a final test compound concentration of 1 μM, and a final DMSO concentration of 0.05% (v/v).
The cells were incubated for six hours (incubator, horizontal shaker) and samples were removed from the incubation after 0, 0.5, 1, 2, 4 or 6 hours, depending on the metabolic turnover rate. Samples were quenched with acetonitrile and pelleted by centrifugation. The supernatant was transferred to a 96-deepwell plate, evaporated under nitrogen, and resuspended prior to bioanalysis by liquid chromatography-high resolution mass spectrometry for identification of putative metabolites.
The contribution of hydrolysis was calculated based on the abundance of the respective deacetylated metabolite(s) of the compounds of the present invention relative to all metabolites observed in incubations with human hepatocytes.

[2] = target: hERG channel (Homo sapiens (Human), UniProt Q12809); experiment: hERG channel assay (whole-cell patch clamp); format: cell-based; conditions: HEK293 cells stably transfected with hERG cDNA
Description: hERG Channel inhibition of compounds of the present invention was investigated as follows:
HEK (human embryonic kidney) 293 cells were stably transfected with hERG cDNA. Cells determined for use in patch clamp experiments were cultivated without antibiotic.
Cells were superfused with a bath solution containing (mM): NaCl (137), KCl (4.0), MgCl2 (1.0), CaCl2(1.8), Glucose (10), HEPES (10), pH 7.4 with NaOH. Patch pipettes were made from borosilicate glass tubing using a pipette and filled with pipette solution containing (mM): K-aspartate (130), MgCl2(5.0), EGTA (5.0), K2ATP (4.0), HEPES (10.0), pH 7.2 with KOH. Resistance of the microelectrodes was typically in the range between 2 MΩ and 5 MΩ.
Membrane currents were recorded using an EPC-10 patch clamp amplifier (HEKA Electronics, Lambrecht, FRG) and PatchMaster software (HEKA). hERG-mediated membrane currents were recorded at typically 28° C., using the whole-cell configuration of the patch-clamp technique. Transfected HEK293 cells were clamped at a holding potential of −60 mV and hERG-mediated inactivating tail currents were elicited using a pulse pattern with fixed amplitudes (activation/inactivation: 40 mV for 2000 ms; recovery: 120 mV for 2 ms; ramp to 40 mV in 2 ms; inactivating tail current: 40 mV for 50 ms) repeated at 15 s intervals. During each inter-pulse interval 4 pulses scaled down by a factor of 0.2 were recorded for a P/n leak subtraction procedure. Rs compensation was employed up to a level that safely allows recording devoid of ringing. The remaining uncompensated Rs was recorded as well as actual temperature and holding current.
The concentrations of the test item were applied sequentially on each of the different cells investigated. A steady state level of baseline current was measured for at least 5 sweeps prior to the application of the first test article concentration. The test item was dissolved in DMSO to yield a stock solution of 1000-fold the highest final concentration. This stock was diluted further in DMSO to stock solutions of 1000-fold the remaining final concentrations. Final dilutions in extracellular buffer were prepared freshly from these stocks by a 1:1000 dilution step each before starting the experiments.
Peak current amplitudes were measured 3 ms after the ramp to +40 mV. For baseline and each concentration, the peak currents of the three last sweeps before application of the next concentration were averaged. Residual currents (I/I0) were calculated for each cell as the fraction of actual average peak current and average baseline peak current. Current inhibition was expressed as […]. Current inhibition for all cells was reported as mean ±SD. If possible, from mean current inhibition data the IC50 was estimated based on the Hill equation using a least squares procedure.

[3] = tested on: human plasma proteins; experiment: Human plasma protein binding assay (equilibrium dialysis); format: in vitro ADME; conditions: 1 μM, 2 hours, 37° C.
Protocol: Equilibrium dialysis (ED) technique was used to determine the approximate in vitro fractional binding of test compounds to plasma proteins. Dianorm Teflon dialysis cells (micro 0.2) were used. Each dialysis cell consists of a donor and an acceptor chamber, separated by an ultrathin semipermeable membrane with a 5 kDa molecular weight cut-off. Stock solutions for each test compound were prepared in DMSO at 1 mM and serially diluted to obtain a final test concentration of 1 μM. The subsequent dialysis solutions were prepared in plasma (supplemented with NaEDTA as anticoagulant), and aliquots of 200 μL test compound dialysis solution in plasma were dispensed into the donor (plasma) chambers. Aliquots of 200 μL dialysis buffer (100 mM potassium phosphate, pH 7.4) were dispensed into the buffer (acceptor) chamber. Incubation was carried out for 2 hours under rotation at 37° C. for establishing equilibrium.
At the end of the dialysis period, aliquots obtained from donor and acceptor chambers, respectively, were transferred into reaction tubes, spiked with Internal Standard solution and processed for HPLC-MS/MS analysis. Analyte concentrations were quantified in aliquots of samples by HPLC-MS/MS against external calibration curves.
Percent bound was calculated using the formula: % bound=(plasma concentration−buffer concentration/plasma concentration)×100

[4] = tested on: human hepatocytes; experiment: Metabolic stability in human hepatocytes; format: in vitro ADME; conditions: human hepatocyte suspension, 1 μM; predicted hepatic clearance as percentage of hepatic blood flow
Protocol: The metabolic degradation of a test compound was assayed in a human hepatocyte suspension. After recovery from cryopreservation, human hepatocytes were diluted in Dulbecco's modified eagle medium (supplemented with 3.5 μg glucagon/500 mL, 2.5 mg insulin/500 mL, 3.75 mg hydrocortisone/500 mL, 5% human serum) to obtain a final cell density of 1.0×10^6 cells/mL or 4.0×10^6 cells/mL, depending on the metabolic turnover rate of the test compound.
Following a 30 minutes preincubation in a cell culture incubator (37° C., 10% CO2), test compound solution was spiked into the hepatocyte suspension, resulting in a final test compound concentration of 1 μM and a final DMSO concentration of 0.05% (v/v).
The cell suspension was incubated at 37° C. (cell culture incubator, horizontal shaker) and samples were removed from the incubation after 0, 0.5, 1, 2, 4 and 6 hours. Samples were quenched with acetonitrile (containing internal standard) and pelleted by centrifugation. The supernatant was transferred to a 96-deepwell plate, and prepared for analysis of decline of parent compound by HPLC-MS/MS.
The percentage of remaining test compound was calculated using the peak area ratio (test compound/internal standard) of each incubation time point relative to the time point 0 peak area ratio. The log-transformed data were plotted versus incubation time, and the absolute value of the slope obtained by linear regression analysis was used to estimate in vitro half-life (T1/2).
In vitro intrinsic clearance (CLint) was calculated from in vitro T1/2 and scaled to whole liver using a hepatocellularity of 120×10^6 cells/g liver, a human liver per body weight of 25.7 g liver/kg as well as in vitro incubation parameters, applying the following equation: CL_[…]_IN VIVO[mL/min/kg]=(CL_[…][μL/min/10^6 cells]×hepatocellularity[10^6 cells/g liver]×liver factor[g/kg body weight])/1000
Hepatic in vivo blood clearance (CL) was predicted according to the well-stirred liver model considering an average liver blood flow (QH) of 20.7 mL/min/kg: CL[mL/min/kg]=CL_[…]_IN VIVO[mL/min/kg]×hepatic blood flow[mL/min/kg]/(CL_[…]_IN VIVO[mL/min/kg]+hepatic blood flow[mL/min/kg])
Results were expressed as percentage of hepatic blood flow: QH[%]=CL[mL/min/kg]/hepatic blood flow[mL/min/kg])

Chain of hERG channel (Q12809 whole entry): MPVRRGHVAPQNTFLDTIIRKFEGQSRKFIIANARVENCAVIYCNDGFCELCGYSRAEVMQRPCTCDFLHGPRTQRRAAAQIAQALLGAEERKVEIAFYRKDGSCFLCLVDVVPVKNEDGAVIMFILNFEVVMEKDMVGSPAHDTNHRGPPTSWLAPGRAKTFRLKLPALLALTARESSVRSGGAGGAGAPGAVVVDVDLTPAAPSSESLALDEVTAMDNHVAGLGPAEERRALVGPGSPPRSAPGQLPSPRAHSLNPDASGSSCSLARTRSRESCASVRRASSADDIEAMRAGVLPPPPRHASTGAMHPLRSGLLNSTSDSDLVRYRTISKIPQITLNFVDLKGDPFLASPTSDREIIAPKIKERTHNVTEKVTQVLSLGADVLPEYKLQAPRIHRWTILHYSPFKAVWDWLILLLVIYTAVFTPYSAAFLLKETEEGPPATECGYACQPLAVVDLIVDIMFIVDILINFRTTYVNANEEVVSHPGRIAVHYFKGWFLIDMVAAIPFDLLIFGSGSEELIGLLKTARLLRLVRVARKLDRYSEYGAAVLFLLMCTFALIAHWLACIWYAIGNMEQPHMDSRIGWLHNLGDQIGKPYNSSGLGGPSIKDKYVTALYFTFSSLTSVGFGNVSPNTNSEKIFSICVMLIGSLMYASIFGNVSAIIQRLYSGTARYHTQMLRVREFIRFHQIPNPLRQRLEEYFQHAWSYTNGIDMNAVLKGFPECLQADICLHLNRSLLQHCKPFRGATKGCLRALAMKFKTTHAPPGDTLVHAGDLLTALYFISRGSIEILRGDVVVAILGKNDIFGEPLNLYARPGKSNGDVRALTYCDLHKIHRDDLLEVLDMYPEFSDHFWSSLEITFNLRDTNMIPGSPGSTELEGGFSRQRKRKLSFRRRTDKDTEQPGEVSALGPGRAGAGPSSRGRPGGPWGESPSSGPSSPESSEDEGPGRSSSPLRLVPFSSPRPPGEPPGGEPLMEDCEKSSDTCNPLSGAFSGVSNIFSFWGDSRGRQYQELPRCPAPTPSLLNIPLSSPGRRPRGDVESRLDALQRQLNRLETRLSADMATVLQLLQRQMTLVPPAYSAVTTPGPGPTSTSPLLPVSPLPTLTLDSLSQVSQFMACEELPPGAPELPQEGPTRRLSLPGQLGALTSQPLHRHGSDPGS

Structure (SMILES)	% Parent of drug-related material [1] [%]	Contribution of amide hydrolysis to metabolism (incl. secondary metabolites) [1] [%]	IC50 [2] [µM]	Hu PPB [3] [% bound]	Human HepStab [4] [% QH]
CC(=O)N1C[C@H](NC(=O)c2nccnc2N2CC(Oc3ccc(F)c(F)c3)C2)C(F)(F)C1 [Example 8b]	84	19	> 10	79.7	9.2
CC(=O)N1C[C@H](NC(=O)c2nsnc2N2CC(Oc3ccc(F)c(F)c3)C2)C(F)(F)C1 [Example 13b]	70	25	> 10	92.8	<4.1
